The values that follow are results of earlier work, collected in patent US20240180852A1, “TREATMENT FOR MALIGNANT PLEURAL EFFUSION IN HUMANS” (Signpath Pharma, Inc., priority 2021, published 2024).

For data set [1] the following is noted: in vivo.

Consider `COc1cc(C=CC(=O)CC(=O)C=Cc2ccc(O)c(OC)c2)ccc1O` [curcumin, 1,7-bis(4-hydroxy-3-methoxyphenyl)-1,6-heptadiene-3,5-dione], for which the solubility entry is recorded as “low solubility”. Besides, the bioavailability result in data set [1] is “low bioavailability”.
